Three compounds from patent publication US11401234B2, “Deuterated compounds and uses thereof” (priority 2012, dated 2022) can be followed below.

Where “and” joins values, the source holds several entries; their conditions need not be identical. Equal values may be shown once.

In series [1] the test system is Human T cell leukaemia cells (Jurkat). Briefly: Inhibition of cell proliferation in air or 1% oxygen (Coulter Counter relative cell number). Format: cell-based. Particulars: 4 days, range of concentrations.
The subject of a further series is 22Rv1 prostate tumours. Briefly: Tumour oxygenation (pO2) by Oxylite oxygen electrode probe in xenografts. It counts as in vivo, SCID mice. The method, then:
• 22Rv1 cells grow as a solid tumour on the backs of SCID mice. • Tumour oxygenation was measured over 28 days in vehicle and bicalutamide (2 mg/kg/day) treated mice (see Table 3 above). • Bicalutamide caused a drop in tumour oxygenation (as shown in FIG. 10); from ˜15.3 mmHg (2% oxygen) to 2.0 mmHg (0.3% oxygen) at day 7 and to 0.5 mmHg (0.1% oxygen) at day 14. […] However, during the subsequent week (probably related to tumour size) the median oxygen levels […] to about 3 mmHg (0.4% oxygen) and do indicate recovery.

In a further series the test system is 22Rv1 xenograft tumours. Briefly: 22Rv1 xenograft tumour growth (calliper tumour volumes). Format: in vivo, SCID mice. Particulars: 2 mg/kg/day oral gavage. The source says:
(ii) Effect of Bicalutamide on Blood Vessels in 22Rv1 Tumour Xenografts • Dorsal skin folds were secured using window chambers onto the backs of male SCID mice (>8 weeks). […] Tumour volume was normalised to day 6 (ie pre-prodrug addition).

The next series has as its system LNCaP xenograft tumours. Briefly: LNCaP xenograft tumour growth (calliper tumour volumes). It counts as in vivo, SCID mice.

As to `COc1cc([C@@H]2c3cc4c(cc3[C@@H](O[C@@H]3O[C@@H]5CO[C@@H](C)O[C@H]5[C@H](O)[C@H]3O)[C@H]3COC(=O)[C@H]23)OCO4)cc(OC)c1O` [VP-16], in series [1], the “inhibition of cell proliferation (cytostatic activity, relative cell number)” value is recorded as “hypoxia does not modify the cytostatic action”.

As for `CC(O)(CS(=O)(=O)c1ccc(F)cc1)C(=O)Nc1ccc(C#N)c(C(F)(F)F)c1` (stereo not drawn) [Bicalutamide], the “Mean pO2 ± SD” value in the series on 22Rv1 prostate tumours (day 0 (before commencement of treatment), 2 mg/kg/day oral gavage group, 2 mg/kg/day) is 15.277 ± 11.254 mmHg; with 22Rv1 prostate tumours (day 7 of treatment, 2 mg/kg/day oral gavage, 2 mg/kg/day) it was 2.0 mmHg and 1.996 ± 1.989 mmHg; with 22Rv1 prostate tumours (day 14 of treatment, 2 mg/kg/day oral gavage, 2 mg/kg/day), 0.5 mmHg and 0.486 ± 0.107 mmHg; in the series on 22Rv1 prostate tumours (day 21 of treatment, 2 mg/kg/day oral gavage) it was 1.291 ± 0.291 mmHg; in the series on 22Rv1 prostate tumours (day 28 of treatment, 2 mg/kg/day oral gavage) it was 11.905 ± 0.861 mmHg. Besides, the tumour oxygenation worked out at 2 % oxygen with 22Rv1 prostate tumours (day 0, 2 mg/kg/day group); 0.3 % oxygen in the series on 22Rv1 prostate tumours (day 7, 2 mg/kg/day); 0.1 % oxygen in the series with 22Rv1 prostate tumours (day 14, 2 mg/kg/day). In addition, in the series on 22Rv1 xenograft tumours, the “time to reach four times the volume at the start of treatment” value turned out to be 18.5 ± 0.8 days. For the same compound, the Growth Delay was 4.5 days in the series with 22Rv1 xenograft tumours (versus vehicle, time to four times start volume); 5.1 days and 5 ± 3.82 days with LNCaP xenograft tumours (versus vehicle, time to reach twice the treatment size). Further, the “Time to 2x start volume” value in the series on LNCaP xenograft tumours (bicalutamide 2 mg/kg/day oral 28 days, OCT1002 50 mg/kg i.p. single dose day 7) came out at 16.2 ± 1.94 days.

For `[2H]C([2H])([2H])N(CCNc1ccc(NCCN(C([2H])([2H])[2H])C([2H])([2H])[2H])c2c1C(=O)c1c(O)ccc(O)c1C2=O)C([2H])([2H])[2H]` [OCT1001, 1,4-bis-{[2-(deuterated-d6-dimethylamino)ethyl]amino)-5,8-dihydroxy-anthracene-9,10-dione], the “loss of intracellular fluorescence attributable to metabolite, compared with AQ4” value with A549 cells (after 24 h post exposure recovery in drug free medium, normal oxygenation) is “reduced loss”. Further, the “cellular accumulation of intracellular fluorescence attributable to metabolite, compared with AQ4” value in the series on A549 cells (after 4 day prodrug exposure under 1% oxygen) is reported as “reduced cellular accumulation”.
